From the NIST ThermoML archive (doi:10.1021/je700288s)

Test: mn = molality of the nth substance listed, in mol/kg
Conditions: 101 kPa, Liquid; for speed of sound: Sing-around technique in a fixed-path interferometer; for mass density: Vibrating tube method

O=C([O-])CC(O)(CC(=O)O)C(=O)O.[K+] [potassium dihydrogen citrate] + O
Conditions	mass density [kg/m3]	speed of sound [m/s]
283.15 K, m1 = 0.0063	1000.47	1448.8
283.15 K, m1 = 0.0186	1001.97	1450.1
283.15 K, m1 = 0.0314	1003.53	1451.5
283.15 K, m1 = 0.0407	1004.65	1452.5
283.15 K, m1 = 0.0561	1006.52	1454.2
283.15 K, m1 = 0.0574	1006.67	1454.3
283.15 K, m1 = 0.0868	1010.19	1457.2
283.15 K, m1 = 0.0905	1010.65	1457.9
283.15 K, m1 = 0.1399	1016.4	1462.9
283.15 K, m1 = 0.1655	1019.36	1465.4
283.15 K, m1 = 0.284	1032.79	1477
283.15 K, m1 = 0.396	1044.96	1487.4
283.15 K, m1 = 0.4766	1053.37	1494.6
283.15 K, m1 = 0.5861	1064.69	1504.1
283.15 K, m1 = 0.5922	1065.27	1504.7
283.15 K, m1 = 0.7578	1081.71	1518.5
288.15 K, m1 = 0.0063	999.861	1466.9
288.15 K, m1 = 0.0186	1001.34	1468.2
288.15 K, m1 = 0.0314	1002.87	1469.5
288.15 K, m1 = 0.0407	1003.98	1470.4
288.15 K, m1 = 0.0561	1005.82	1472
288.15 K, m1 = 0.0574	1005.97	1472.1
288.15 K, m1 = 0.0868	1009.45	1475
288.15 K, m1 = 0.0905	1009.9	1475.4
288.15 K, m1 = 0.1399	1015.58	1480.1
288.15 K, m1 = 0.1655	1018.5	1482.5
288.15 K, m1 = 0.284	1031.76	1493.4
288.15 K, m1 = 0.396	1043.8	1503.1
288.15 K, m1 = 0.4766	1052.13	1509.8
288.15 K, m1 = 0.5861	1063.34	1518.9
288.15 K, m1 = 0.5922	1063.9	1519.4
288.15 K, m1 = 0.7578	1080.19	1532.5
293.15 K, m1 = 0.0063	998.956	1483.1
293.15 K, m1 = 0.0186	1000.41	1484.3
293.15 K, m1 = 0.0314	1001.93	1485.5
293.15 K, m1 = 0.0407	1003.03	1486.4
293.15 K, m1 = 0.0561	1004.84	1487.9
293.15 K, m1 = 0.0574	1004.99	1488
293.15 K, m1 = 0.0868	1008.42	1490.7
293.15 K, m1 = 0.0905	1008.87	1491
293.15 K, m1 = 0.1399	1014.48	1495.5
293.15 K, m1 = 0.1655	1017.37	1497.7
293.15 K, m1 = 0.284	1030.49	1507.8
293.15 K, m1 = 0.396	1042.41	1517
293.15 K, m1 = 0.4766	1050.65	1523.3
293.15 K, m1 = 0.5861	1061.76	1531.8
293.15 K, m1 = 0.5922	1062.33	1532.3
293.15 K, m1 = 0.7578	1078.48	1544.7
298.15 K, m1 = 0.0063	997.788	1497.3
298.15 K, m1 = 0.0186	999.232	1498.5
298.15 K, m1 = 0.0314	1000.73	1499.6
298.15 K, m1 = 0.0407	1001.82	1500.4
298.15 K, m1 = 0.0561	1003.61	1501.8
298.15 K, m1 = 0.0574	1003.75	1501.9
298.15 K, m1 = 0.0868	1007.15	1504.4
298.15 K, m1 = 0.0905	1007.6	1504.7
298.15 K, m1 = 0.1399	1013.15	1508.8
298.15 K, m1 = 0.1655	1016	1510.9
298.15 K, m1 = 0.284	1029	1520.5
298.15 K, m1 = 0.396	1040.81	1529
298.15 K, m1 = 0.4766	1048.98	1535
298.15 K, m1 = 0.5861	1060	1543
298.15 K, m1 = 0.5922	1060.56	1543.5
298.15 K, m1 = 0.7578	1076.59	1555.2
303.15 K, m1 = 0.0063	996.385	1509.7
303.15 K, m1 = 0.0186	997.809	1510.7
303.15 K, m1 = 0.0314	999.297	1511.8
303.15 K, m1 = 0.0407	1000.37	1512.5
303.15 K, m1 = 0.0561	1002.15	1513.8
303.15 K, m1 = 0.0574	1002.29	1513.9
303.15 K, m1 = 0.0868	1005.65	1516.3
303.15 K, m1 = 0.0905	1006.09	1516.6
303.15 K, m1 = 0.1399	1011.59	1520.5
303.15 K, m1 = 0.1655	1014.43	1522.4
303.15 K, m1 = 0.284	1027.31	1531.4
303.15 K, m1 = 0.396	1039.02	1539.4
303.15 K, m1 = 0.4766	1047.12	1545
303.15 K, m1 = 0.5861	1058.06	1552.6
303.15 K, m1 = 0.5922	1058.61	1553
303.15 K, m1 = 0.7578	1074.53	1564.2
308.15 K, m1 = 0.0063	994.762	1520.3
308.15 K, m1 = 0.0186	996.176	1521.3
308.15 K, m1 = 0.0314	997.649	1522.3
308.15 K, m1 = 0.0407	998.709	1523
308.15 K, m1 = 0.0561	1000.47	1524.2
308.15 K, m1 = 0.0574	1000.61	1524.3
308.15 K, m1 = 0.0868	1003.95	1526.5
308.15 K, m1 = 0.0905	1004.38	1526.8
308.15 K, m1 = 0.1399	1009.84	1530.4
308.15 K, m1 = 0.1655	1012.65	1532.3
308.15 K, m1 = 0.284	1025.42	1540.7
308.15 K, m1 = 0.396	1037.05	1548.2
308.15 K, m1 = 0.4766	1045.1	1553.5
308.15 K, m1 = 0.5861	1055.95	1560.7
308.15 K, m1 = 0.5922	1056.5	1561.1
308.15 K, m1 = 0.7578	1072.31	1571.6
